Results as given in ChEMBL document CHEMBL5236560, “Structure-Based Discovery of Potent CARM1 Inhibitors for Solid Tumor and Cancer Immunology Therapy” (J Med Chem, 2021).

Key:
[1] = biological target: T1, Histone-arginine methyltransferase CARM1 (Homo sapiens, UniProt Q86X55); experiment: Inhibition of human CARM1 (140 to 480 residues) incubated for 15 mins measured after 60 min by AlphaLISA assay
T1 sequence (Q86X55 whole entry): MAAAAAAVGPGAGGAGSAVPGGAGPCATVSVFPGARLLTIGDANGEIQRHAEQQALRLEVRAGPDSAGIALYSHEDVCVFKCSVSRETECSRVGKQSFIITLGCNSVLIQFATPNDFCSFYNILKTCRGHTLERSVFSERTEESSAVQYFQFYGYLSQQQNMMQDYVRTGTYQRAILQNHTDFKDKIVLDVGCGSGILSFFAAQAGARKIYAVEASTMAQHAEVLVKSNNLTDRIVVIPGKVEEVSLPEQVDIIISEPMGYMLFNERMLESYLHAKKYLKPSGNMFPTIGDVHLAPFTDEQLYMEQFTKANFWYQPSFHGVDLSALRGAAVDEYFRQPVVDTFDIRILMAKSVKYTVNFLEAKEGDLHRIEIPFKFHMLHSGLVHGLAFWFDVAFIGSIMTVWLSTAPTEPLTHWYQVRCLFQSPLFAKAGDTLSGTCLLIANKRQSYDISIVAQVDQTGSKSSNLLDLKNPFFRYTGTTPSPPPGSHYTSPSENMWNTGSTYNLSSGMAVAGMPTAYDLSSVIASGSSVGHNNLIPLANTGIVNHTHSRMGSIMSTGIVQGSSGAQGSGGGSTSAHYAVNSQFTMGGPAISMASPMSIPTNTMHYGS

[2] = system: BT-549; experiment: Antiproliferative activity against human BT-549 cells assessed as cell growth inhibition incubated for 6 days by SRB assay; type: functional, cell-based; conditions: BT-549, 144 h
[3] = system: A-375; experiment: Antiproliferative activity against human A-375 cells assessed as cell growth inhibition incubated for 6 days by SRB assay; type: functional, cell-based; conditions: A-375, 144 h
[4] = Half life in ICR mouse at 10 mg/kg, po measured upto 24 hrs by UPLC analysis; type: ADME, organism-based; conditions: in vivo
[5] = Cmax in ICR mouse at 10 mg/kg, po measured upto 24 hrs by UPLC analysis; type: ADME, organism-based; design: time < 24 hrs, dose 10 mg/kg, route po; conditions: in vivo
[6] = AUClast in ICR mouse at 10 mg/kg, po measured upto 24 hrs by UPLC analysis; type: ADME, organism-based; design: dose 10 mg/kg, time < 24 hrs, route po; conditions: in vivo
[7] = AUC(0 to infinity) in ICR mouse at 10 mg/kg, po measured upto 24 hrs by UPLC analysis; type: ADME, organism-based; design: dose 10 mg/kg, time < 24 hrs, route po; conditions: in vivo
[8] = Tmax in ICR mouse at 10 mg/kg, po measured upto 24 hrs by UPLC analysis; type: ADME, organism-based; conditions: in vivo
[9] = Metabolic stability in monkey liver microsomes assessed as parent compound remaining measured after 2 hrs; type: ADME, Macaca mulatta, Microsome; conditions: rhesus monkey, read-out: Stability
[10] = Metabolic stability in rat liver microsomes assessed as parent compound remaining measured after 2 hrs; type: ADME, Microsome; conditions: read-out: Stability
[11] = Metabolic stability in human liver microsomes assessed as parent compound remaining measured after 2 hrs; type: ADME, Microsome; conditions: read-out: Stability
[12] = Metabolic stability in mouse liver microsomes assessed as parent compound remaining measured after 2 hrs; type: ADME, Microsome; conditions: read-out: Stability
[13] = Metabolic stability in dog liver microsomes assessed as parent compound remaining measured after 2 hrs; type: ADME, Canis lupus familiaris, Microsome; conditions: read-out: Stability
[14] = system: A-375; experiment: Antitumor activity against human A-375 cells xenografted in po dosed nude mouse assessed as tumor growth inhibition at 100 mg/kg administered once daily measured after 21 days relative to control; type: functional; conditions: A-375, 504 h, time 21 day, read-out: TGI
[15] = system: A-375; experiment: Antitumor activity against human A-375 cells xenografted in po dosed nude mouse assessed as tumor growth inhibition at 75 mg/kg administered once daily measured after 21 days relative to control; type: functional; conditions: A-375, 504 h, time 21 day, read-out: TGI

IC50 [1]	IC50 [2]	IC50 [3]	SMILES	further results
> 1000 nM	–	–	Cc1c(NC2CCOCC2)nc(-c2cccc(CNC(=O)[C@@H](N)CO)c2)nc1-c1ccccc1	–
1.13 nM	11900 nM	8200 nM	CNCCNCc1cccc(-c2nc(-c3c(C)noc3C)c(C)c(N3Cc4cccnc4C3)n2)c1	–
29.5 nM	–	–	CNCCNCc1cccc(-c2nc(Cl)c(C)c(NC3CCOCC3)n2)c1	–
3.68 nM	> 50000 nM	44300 nM	CNCCNCc1cccc(-c2nc(NC3CCOCC3)c(C)c(-c3ccncc3)n2)c1	–
10.2 nM	–	–	CNCCNCc1cccc(-c2nc(NC3CCOCC3)c(C)c(-c3ccccc3)n2)c1	–
10.1 nM	–	–	CNCCNCc1cccc(-c2nc(-c3c(C)noc3C)c(C)c(N3Cc4ccccc4C3)n2)c1	–
13.1 nM	–	–	CNCCNCc1cccc(-c2nc(-c3c(C)noc3C)c(C)c(N3CCN(C)CC3)n2)c1	–
1.63 nM	> 50000 nM	> 50000 nM	CNCCNCc1cccc(-c2nc(NC3CCOCC3)c(C)c(-c3c(C)noc3C)n2)c1	half-life [4]: 6.56 h; Cmax [5]: 95.4 ng/mL; AUC(0-t) at 24 h [6]: 199 ng·h/mL; AUC(0-inf) [7]: 209 ng·h/mL; Tmax [8]: 1.33 h; remaining at 2 h [9]: 86.1%; remaining at 2 h [10]: 93.4%; remaining at 2 h [11]: 93.1%; remaining at 2 h [12]: 90%; remaining at 2 h [13]: 85.5%
1.1 nM	> 50000 nM	24700 nM	CNCCNCc1cccc(-c2nc(-c3c(C)noc3C)c(C)c(N3CCOCC3)n2)c1	–
> 1000 nM	–	–	Cc1noc(C)c1-c1nc(-c2cccc(CNC(=O)[C@@H](N)CO)c2)nc(NC2CCOCC2)c1C	–
2.46 nM	> 50000 nM	> 50000 nM	CNCCNCc1cccc(-c2nc(-c3c(C)noc3C)c(C)c(N3CCS(=O)(=O)CC3)n2)c1	–
> 1000 nM	–	–	Cc1c(NC2CCOCC2)nc(-c2cccc(CNC(=O)[C@H](C)N)c2)nc1-c1ccccc1	–
> 1000 nM	–	–	Cc1c(NC2CCOCC2)nc(-c2cccc(CNC(=O)[C@@H](N)CO)c2)nc1-c1ccncc1	–
2.3 nM	23700 nM	24100 nM	CNCCNCc1cccc(-c2nc(NC3CCOCC3)c(C)c(-c3ccc(O)cc3)n2)c1	–
60 nM	–	–	CNCCNCc1cccc(-c2nc(NC3CCOCC3)c(C)c(Oc3ccccc3)n2)c1	–
5.13 nM	–	–	CNCCNCc1cccc(-c2nc(NC3CCOCC3)c(C)c(-c3ccc(OC(F)(F)F)cc3)n2)c1	–
4.37 nM	32000 nM	12700 nM	CNCCNCc1cccc(-c2nc(NC3CCOCC3)c(C)c(-c3cccc4cnccc34)n2)c1	–
19.6 nM	8200 nM	6700 nM	CNCCNCc1cccc(-c2nc(Nc3ccccc3)c(C)c(-c3c(C)nn(C)c3C)n2)c1	–
11.5 nM	–	–	CNCCNCc1cccc(-c2nc(-c3c(C)noc3C)c(C)c(N3CCN(C(C)=O)CC3)n2)c1	–
21.4 nM	–	–	CNCCNCc1cccc(-c2nc(NC3CCOCC3)c(C)c(-c3cc4ccccc4s3)n2)c1	–
–	–	–	CNC[C@@H](O)COc1ccc(Cl)c(-c2nc(-c3c(C)noc3C)c(C)c(N3CC4(CCN(C(=O)OC)CC4)C3)n2)c1	inhibition in vivo at 100 mg/kg [14]: 82.6%; inhibition in vivo at 75 mg/kg [15]: 24%

IC50 [1]	IC50 [2]	IC50 [3]	SMILES	further results
26.9 nM	–	–	CNCCNCc1cccc(-c2nc(NC3CCOCC3)c(C)c(-c3ccc(OC)cc3)n2)c1	–
0.92 nM	> 50000 nM	45500 nM	CNCCNCc1cccc(-c2nc(NC3CCOCC3)c(C)c(-c3cccnc3)n2)c1	–
> 1000 nM	–	–	Cc1c(NC2CCOCC2)nc(-c2cccc(CNC(=O)[C@H](C)N)c2)nc1-c1ccncc1	–
29.4 nM	–	–	CNCCNCc1cccc(-c2nc(NC3CCOCC3)c(C)c(-c3cc4cccc(OC)c4[nH]3)n2)c1	–
6.07 nM	–	–	CNCCNCc1cccc(-c2nc(NC3CCOCC3)c(C)c(-c3cccc4ncccc34)n2)c1	–
11.6 nM	14100 nM	10900 nM	CNCCNCc1cccc(-c2nc(Nc3ccccc3)c(C)c(-c3cccnc3)n2)c1	–
3.84 nM	25200 nM	18200 nM	CNCCNCc1cccc(-c2nc(NC3CCOCC3)c(C)c(-c3ccnc4[nH]ccc34)n2)c1	–
> 1000 nM	–	–	Cc1noc(C)c1-c1nc(-c2cccc(CNC(=O)[C@H](C)N)c2)nc(NC2CCOCC2)c1C	–
3.78 nM	> 50000 nM	> 50000 nM	CNCCNCc1cccc(-c2nc(NC3CCOCC3)c(C)c(-c3cn(C)nc3C)n2)c1	–
6.15 nM	–	–	CNCCNCc1cccc(-c2nc(NC3CCOCC3)c(C)c(-c3ccccn3)n2)c1	–
4.29 nM	> 50000 nM	> 50000 nM	CNCCNCc1cccc(-c2nc(NC3CCOCC3)c(C)c(-c3cncnc3)n2)c1	–
2.94 nM	> 50000 nM	> 50000 nM	CNCCNCc1cccc(-c2nc(NC3CCOCC3)c(C)c(-c3ccnn3C)n2)c1	–
31.5 nM	–	–	CNCCNCc1cccc(-c2nc(NCc3ccccc3)c(C)c(NC3CCOCC3)n2)c1	–
21.7 nM	–	–	CNCCNCc1cccc(-c2nc(-c3c(C)noc3C)c(C)c(N3CCCCC3)n2)c1	–
0.65 nM	> 50000 nM	> 50000 nM	CNCCNCc1cccc(-c2nc(NC3CCOCC3)c(C)c(-c3c(C)nn(C)c3C)n2)c1	–
33.6 nM	–	–	CNCCNCc1cccc(-c2nc(NC3CCOCC3)c(C)c(OCc3ccccc3)n2)c1	–
11.8 nM	–	–	CNCCNCc1cccc(-c2nc(NC3CCOCC3)c(C)c(-c3cccc4[nH]ccc34)n2)c1	–
0.78 nM	> 50000 nM	> 50000 nM	CNCCNCc1cccc(-c2nc(-c3c(C)noc3C)c(C)c(N3CCN(S(C)(=O)=O)CC3)n2)c1	–
5.2 nM	–	–	CNCCNCc1cccc(-c2nc(NC3CCOCC3)c(C)c(-c3ccc(S(C)(=O)=O)cc3)n2)c1	–
4.24 nM	> 50000 nM	> 50000 nM	CNCCNCc1cccc(-c2nc(NC3CCN(S(C)(=O)=O)CC3)c(C)c(-c3c(C)noc3C)n2)c1	–
187 nM	–	–	CNCCNCc1cccc(-c2nc(Nc3ccccc3)c(C)c(NC3CCOCC3)n2)c1	–
